# Measurements from patent US6998249B1, “Toxicity screening method” (priority 1999, dated 2006).
# Like-named read-outs stand apart in the source and are kept apart here.
# Key:
# H4IIE cells [1] = assay: ATP assay (ATP-Lite); format: cell-based, rat
# Experimental: Cellular Adenosine triphosphate (ATP) was determined with the ATP-Lite kit from Packard Instruments according to the manufacturer's instructions. This assay is based on a reaction between ATP+D-luciferin+oxygen catalyzed by luciferase to yield Oxyluciferin+AMP+PPi+CO2+light. The emitted light is proportional to the amount of ATP present. Rather than a “flash” type signal which has a very short half-life, this assay utilizes a “glow” technology that extends the signal half-life to 5 hours. In addition, a unique cell lysis reagent inhibits endogenous ATPases and therefore stabilizes cellular ATP by preventing its degradation to ADP.. ATP is present in all living cells and declines rapidly upon cell death. In addition, this assay in combination with the MTT assay provides an indicator of mitochondrial activity and the energy status of the cell.
# Changes in ATP may be expressed as a percent change relative to controls by dividing the mean treatment luminescence values by the control values and multiplying by 100. An actual amount of ATP can also be determined by including an ATP calibration curve in the assay and then converting the luminescence response to an ATP concentration with the regression coefficients. Finally, it is possible to estimate the amount of ATP produced per cell, by dividing the pmol ATP data by cell number. Typically, cells try to maintain a stable level of ATP and therefore this parameter is not routinely calculated unless information on the stability of the ATP pool is desired.
# isolated mitochondria = conditions: cited from earlier work
# liver [2] = conditions: rats; cited from earlier work
# H4IIE cells [3] = conditions: rat, 24 h
# Experimental: (§9) Measurements of A-GST leakage from cultured cells into the media can be used to assess membrane integrity. This assay is specific for the alpha form of GST that exists at high concentrations in the cytosol of hepatocytes. An ELISA kit purchased from Biotrin Inc. was used to measure GST.
# (§10) On the morning after dosing the cells (approximately 24 hours) the media covering the cells in each well was removed and placed into new 96-well plates with appropriate labeling. These media plates were stored at −80° C. until needed for analysis.
# (§11) Leakage of the GST enzyme is determined by collecting the media in which the cells were exposed to the test compound at the end of the 24 hour exposure period. Thus, GST values represent total GST lost over the exposure period. The control for 100% dead or maximum GST release is based on cells treated with 1 mM digitonin at T0. Percent dead cells relative to digitonin treated cells was determined and then subtracted from 100 to yield the percent live cells.
# H4IIE cells [4] = assay: Cluster Analysis Toxicity Screening (CATS), combined cell number, GST, MTT and ATP assays; format: cell-based
# Description: (§1) The test compounds were received pre-weighed into glass vials. The preparation of 20 millimolar stock solutions was accomplished by adding a sufficient amount of dimethylsulfoxide (DMSO) directly into the vials. These stocks were used to prepare 200 micromolar stock solutions in DMSO. Both the 20 millimolar and 200 micromolar, stocks were used to prepare dosing solutions of 0.05, 0.1, 1.0, 5.0, 10.0, 20.0, 50.0, 100, and 300 micromolar in culture media with a final DMSO concentration of 0.5%. The stocks and dosing solutions were prepared on the day prior to dosing. The solutions were wrapped in foil and stored at 4° C. until the next morning.
# (§2) Negative controls of media plus DMSO (0.5%) were included with and without cells. A digitonin (1 mM) treated group was included as a positive control for complete cell death.
# (§3) Rat hepatoma derived H4IIE cells were used as the test system. The cells were obtained from ATCC (# CRL-1548) and subcultured in the laboratory. The culture medium used for these cells was Eagle's Minimum Essential Medium (MEM) with 10% Fetal Bovine Serum (FBS) and 10% calf serum. Certified FBS and calf serum were from Gibco Life Technologies.
# (§4) 96-well plates were seeded with […] in 200 microliters of media 48 hour prior to dosing. On the morning of the third day after seeding, the test compounds were added to the plates in a 200 microliter volume of medium (DMSO=0.5%).
# (§5) In this Example, ketoconazole was used as the test drug. Rat hepatoma cells were seeded into 96-well culture plates and allowed to establish growth for 48 hours. Following this growth phase, the cells were treated with 0, 0.05, 0.1, 1, 5, 10, 20, 50, 100, and 300 micromolar of ketoconazole in growth medium and 0.5% DMSO. […]
# [5] = as above; format: cell-based; conditions: rat, 24 hour exposure
# Description: as §1, §2, §3, §4, §5
# H4IIE cells [6] = assay: MTT mitochondrial function assay; format: cell-based, rat
# Experimental: (§6) (3-(4,5-dimethylthiazol-2-yl)-2,5-diphenyl-tetrazolium bromide (MTT). After the media was removed from a plate for GST analysis, the cells remaining in each well were evaluated for their ability to reduce the tetrazolium dye to formazan via mitochondrial dehydrogenase activity. An MTT stock solution was prepared in Earl's Buffered Salt Solution (EBSS) to a final concentration of 5.0 mg/ml. This stock was diluted 10-fold with complete media (0.5 mg/ml) just prior to use and warmed to 37° C. in a water bath. In some instances the MTT powder may be added directly to complete medium to give a final concentration of 0.5-mg/ml. Once the media was removed from all wells 200 microliter, of the 0.5 mg/ml MTT solution was added to each well and the plate was allowed to incubate at 37° C. for 3-4 hours. Color development is linear over this time.
# (§7) After the 3-4 hour incubation, all media was removed and the purple formazan product was extracted by adding 200 microliters, of anhydrous isopropanol. The plates were covered with foil and placed on an orbital shaker for 30 min at room temperature. Each well was aspirated with a multi-channel pipette to insure solubilization of the formzan dye and then the plate was centrifuged at 3000 rpms in a Beckman Allegra 6R centrifuge equipped with a GH3.8 rotor to remove insoluble cellular debris. Analyses were performed by transferring 100 microliters, of supernatant to a clean 96-well plate and then reading the sample absorbance at 570 nm and the reference absorbance at 650 nm with a Packard scanning spectrophotometer.
# (§8) At the end of the 24 hour exposure period the media was removed and the remaining attached cells were assayed for mitochondrial function. […] Percent control values were determined by dividing the mean absorbance of the treatment group by the mean absorbance of the control group and multiplying by 100.
# [7] = MTT mitochondrial function assay; format: cell-based, rat; conditions: rat, H4IIE rat hepatoma cells; 24 hour exposure; read-out: TC50 for MTT
# Experimental: as §6, §7, §8
# liver [8] = conditions: humans; cited from earlier work
# H4IIE cells [9] = assay: Cell proliferation (CYQUANT) cell number assay; format: cell-based, rat
# Experimental: Cell number in each well was determined with the CYQUANT® cell proliferation kit from Molecular Probes. This assay is based on a DNA-specific binding dye that fluoresces upon interaction with DNA. Conversion to cell number is achieved by comparing sample fluorescence units to a standard curve based on fluorescence units/cell. The assay was performed essentially as described by the manufacturer with the following exceptions: The digitonin (1 mM) or Triton X 100 (1%) was added to the lysis buffer. The lysis buffer was added to the plates immediately after removing the plates from the −80° C. freezer. The plates were shaken for 20 min prior to reading the fluorescence.
# Cell number was determined by establishing a calibration curve. In order to obtain fluorescence units (FU) per cell 1×10^6 cells were placed in a tube and centrifuged to a pellet. The pellet was then resuspended in 1 milliliters of a cell lysis buffer containing the DNA binding dye. Thus, one million cells in 1000 milliliters yields a relationship of 1000 cells per microliter of suspension. This provides FU/cell. Cell number for samples was determined by applying the FU obtained to the calibration curve. The percent change relative to controls was determined by dividing the treatment cell number by the control cell number and multiplying by 100.
# H4IIE cells [10] = assay: Glutathione S-transferase (GST) leakage assay (membrane integrity); conditions: 6 hour exposure
# Experimental: as §9, §10, §11
compound,measurement,setting,value
CC(=O)N1CCN(c2ccc(OCC3COC(Cn4ccnc4)(c4ccc(Cl)cc4Cl)O3)cc2)CC1 (centres unmarked) [ketoconazole],effect on ATP,H4IIE cells [1],reduced
same,concentration of early toxic effects in ATP assay,"H4IIE cells [1]; rat, 24 h",below 20 micromolar
same,effect on State III respiration,isolated mitochondria,direct inhibition
same,sustained plasma concentration producing hepatic damage,liver [2],60 µM
same,concentrations at which not toxic to cells by GST leakage,H4IIE cells [3],below 300 micromolar
same,influence of final DMSO concentration on toxicity,H4IIE cells [4],No significant differences in toxicity
same,"Ctox, estimated plasma concentration that would produce toxicity","H4IIE cells [4]; rat, 24 h",20 µM
same,change of TC50 with exposure time,"H4IIE cells [4]; rat, 72 h",largest shift in TC50 values occurred between 24 and 48 hours
same,CC50 at 24 h,"[5]; cell number, ATP, GST, read-out: TC50 for all other endpoints (than MTT)",> 100 µM
same,CC50 at 24 h,"[5]; H4IIE cells, all parameters, read-out: TC50 values",≥ 50 µM
same,CC50 at 24 h,"[5]; H4IIE cells, cell number, GST leakage, MTT, ATP, read-out: TC50, all parameters measured",≥ 50 µM
same,concentration of early toxic effects in MTT assay,H4IIE cells [6]; 24 hour exposure,below 20 micromolar
same,effect on MTT,H4IIE cells [6]; 24 hour exposure,reduced
same,CC50 at 24 h,[7],70 µM
same,sustained plasma concentration resulting in liver toxicity,liver [8],30 µM
same,effect on cell number,H4IIE cells [9]; 24 hour exposure,dose-related reduction in cell number
O=C(N[C@H](CO)[C@H](O)c1ccc([N+](=O)[O-])cc1)C(Cl)Cl [chloramphenical],change of TC50 with exposure time,"H4IIE cells [4]; time course over a 72 hour exposure period, H4IIE cells",largest shift in TC50 values occurred between 24 and 48 hours
CC[C@H]1/C=C/C=C/C[C@@H](C)[C@H](O)[C@@](C)(O)C(=O)[C@@H](C)[C@H](O)[C@@H](C)C(=O)[C@@H](C)[C@H](O)[C@@H](C)/C=C/C(=O)O[C@@H]2[C@H](C)[C@H](CC1)O[C@]1(CC[C@H](C)[C@H](C[C@@H](C)O)O1)[C@H]2C [oligomycin],effect on ATP,H4IIE cells [1]; 6 hour exposure,completely depleted
same,effect on MTT,H4IIE cells [6]; 6 hour exposure,significantly reduced
same,effect on GST leakage,H4IIE cells [10],unaffected
same,effect on cell number,H4IIE cells [9]; 6 hour exposure,unaffected
C[C@@H]1[C@H](O)[C@@H](C)/C=C/C=C/C=C/C=C/C=C/C=C/C=C/[C@H](O[C@@H]2O[C@H](C)[C@@H](O)[C@H](N)[C@@H]2O)C[C@@H]2O[C@](O)(C[C@@H](O)C[C@@H](O)[C@H](O)CC[C@@H](O)C[C@@H](O)CC(=O)O[C@H]1C)C[C@H](O)[C@H]2C(=O)O [amphotericin],influence of final DMSO concentration on toxicity,H4IIE cells [4],No significant differences in toxicity
"C[S+](C)[O-] [DMSO, dimethylsulfoxide]","concentrations with no effects on cell proliferation, MTT and GST",H4IIE cells [4]; rat,below 2%
